Source: patent US4175081A, “5-Substituted thiadiazole ureas” (priority 1977, dated 1979)

Tests used:
[1] = tested on: Crabgrass (CG); assay: Pre-emergence herbicide test; type: in vivo, Digitaria sanquinalis; conditions: Digitaria sanguinalis, pre-emergence, 336 h, two weeks after treatment
Method in brief: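 Crabgrass (Digitaria sanquinalis) was surface seeded in 3' plastic pots of potting soil, covered with screened soil, and watered by sub-irrigation in greenhouse trays. Pots were seeded one day before spraying in a hood with a moving belt and fixed nozzle. Plants stayed in the greenhouse on sub-irrigation, and pre-emergence control was rated visually two weeks after treatment.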

[2] = tested on: Johnson grass (JG); assay: Pre-emergence herbicide test; type: in vivo, Sorgum helepense; conditions: Sorghum halepense, 336 h, two weeks after treatment
Method in brief: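 Pots seeded one day before spraying; compound applied pre-emergence at 8 lbs/acre (or 4 lbs/acre) in 38 gallons/acre spray volume. Sub-irrigated in greenhouse; injury/control rated visually two weeks after treatment.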

[3] = tested on: Amaranth pigweed (PW); assay: Pre-emergence herbicide test; type: in vivo, Amaranthus retroflexus; conditions: 336 h, two weeks after treatment
Method in brief: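 Pigweed was surface-seeded in potted soil one day before spraying at 8 lbs compound per acre, or 4 lbs/acre, in 38 gallons per acre. Pots were kept in the greenhouse with sub-irrigation only; injury or control was rated visually two weeks after treatment.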

[4] = tested on: Cotton (CT); assay: Pre-emergence herbicide test; type: in vivo, Gossypium hirsutum var. DPL smooth leaf; conditions: Gossypium hirsutum, 336 h, two weeks after treatment
Method in brief: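 Crop and weed species seeded one day before treatment, then sprayed pre-emergence at 8 lbs actual compound per acre (also 4 lbs/acre formulations) in 38 gallons per acre. Pots kept in greenhouse with sub-irrigation only; injury or control visually rated two weeks after treatment.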

[5] = tested on: Bean (BN); assay: Pre-emergence herbicide test; type: in vivo, Phaseolus vulgaris var. Black Valentine; conditions: Phaseolus vulgaris, 336 h, two weeks after treatment
Method in brief: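 Black Valentine bean was seeded in potting soil one day before spraying. Compound was applied pre-emergence at 8 lbs/acre (also 4 lbs/acre) in 38 gallons per acre. Plants were sub-irrigated and injury or control was rated visually after two weeks.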

[6] = tested on: Crabgrass (CG); assay: Post-emergence herbicide test; type: in vivo, Digitaria sanquinalis; conditions: Digitaria sanguinalis, post-emergence, 336 h, two weeks after treatment
Method in brief: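 Crabgrass (Digitaria sanquinalis) was surface seeded individually in 3' plastic pots of potting soil, covered with screened soil, and watered by sub-irrigation in greenhouse trays. Planting was staggered so seedlings reached the target stage together. Post-emergence sprays were applied in a hood with a removable belt and fixed nozzle, and control was visually rated two weeks after treatment.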

[7] = tested on: Barnyard grass (BG); assay: Post-emergence herbicide test; type: in vivo; conditions: Echinochloa crus-galli, 336 h, two weeks after treatment
Method in brief: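 Greenhouse pot-grown barnyard grass seedlings sprayed post-emergence at 8 lbs active compound per acre (some at 4 lbs/acre) in 38 gallons per acre, then sub-irrigated. Injury or control rated visually two weeks after treatment.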

[8] = tested on: Amaranth pigweed (PW); assay: Post-emergence herbicide test; type: in vivo, Amaranthus retroflexus; conditions: 336 h, two weeks after treatment
Method in brief: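 Pot-grown pigweed was sprayed post-emergence at the 1–2 true-leaf stage with compound at rates equivalent to 8 lbs per acre (formulations also prepared for 4 lbs/acre) in 38 gallons per acre, using a hood with fixed nozzle. Plants were sub-irrigated in the greenhouse, and injury or control was rated visually two weeks after treatment.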

[9] = tested on: Turnip (TP); assay: Post-emergence herbicide test; type: in vivo, Brassica sp.; conditions: Brassica rapa, post-emergence, 336 h, two weeks after treatment
Method in brief: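 A greenhouse post-emergence herbicide test on turnip. Seeds were sown on the surface of potting soil in 3' plastic pots, lightly covered with screened soil and watered from below. Planting was timed so seedlings had 1 or 2 true leaves above the cotyledons at spraying, done in a hood with a fixed nozzle. Control or injury was scored by eye after two weeks.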

[10] = tested on: Cotton (CT); assay: Post-emergence herbicide test; type: in vivo, Gossypium hirsutum var. DPL smooth leaf; conditions: Gossypium hirsutum, post-emergence, 336 h, two weeks after treatment
Method in brief: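 Cotton (Gossypium hirsutum var. DPL smooth leaf) was grown in 3' plastic pots of potting soil, four seeds per pot, planted at a depth equal to the seed diameter and watered by sub-irrigation. At the stage of expanded cotyledons with the first true leaf 1' long, plants were sprayed post-emergence in a hood with a fixed nozzle over a moving belt. Percent control was rated visually two weeks later.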

[11] = tested on: Corn (CN); assay: Post-emergence herbicide test; type: in vivo; conditions: Zea mays, 336 h, two weeks after treatment
Method in brief: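 Greenhouse seedlings grown in potting soil and sprayed post-emergence at 8 lbs compound/acre (formulations also made for 4 lbs/acre) in 38 gallons/acre spray volume. Watering by sub-irrigation only. Injury or control rated visually two weeks after treatment.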

[12] = tested on: Bean (BN); assay: Post-emergence herbicide test; type: in vivo, Phaseolus vulgaris var. Black Valentine; conditions: Phaseolus vulgaris, post-emergence, 336 h, two weeks after treatment
Method in brief: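 Snapbean (Phaseolus vulgaris var. Black Valentine) was tested post-emergence. Four seeds were sown in 3' plastic pots of potting soil at a depth equal to the seed diameter, then sub-irrigated in greenhouse trays. Planting dates were staggered so plants were sprayed once primary leaves had expanded, with the growing point at the primary leaf nodes.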

[13] = tested on: Sinapis; assay: Field test, pre-emergence application; type: in vivo; conditions: reading 0 = no effect, 10 = completely killed, 14 and 20 days
Protocol: Tests have also been made for the compound of Example 1 with Sinapis, oats and wheat. This test was conducted according to the following procedure.
Forty rows, 70 feet long, were planted to weeds and crops. Two rows were planted on each bed. Beds were 40 inches apart from center to center. The two rows were about 10 inches apart on each bed. Beds were rolled prior to planting to provide a uniform smooth surface. Soil temperature at a depth of 11/2 inches was 66° F. at time of planting. Post-emergence applications were made by spraying bands across rows 10 feet wide using a self-propelled plot sprayer with a 10 foot boom equipped with Teejet 8001 flat spray nozzle tips and operated at 40 psi. A total of 84 fluid ounces of spray material was applied to three replicates. Each replicate plot was 10 feet wide by 66.67 feet long. […]
Eight days after the application, readings were made on the effect of the chemicals on each crop and weed in the post-emergence treatment. A reading of 0 was recorded if no effect was observed; 10 recorded if the plants were completely killed, and readings of 1 to 9 for intermediate kills. A second reading of the post-emergence treatments was made 14 days after the application.
Readings were made 14 and 20 days after the pre-emergence application.

[14] = tested on: variety of crops and weed species; assay: Pre- and post-emergence herbicide tests, overall assessment of Tables III-VI; type: in vivo; conditions: data of Tables III-VI
Method in brief: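 Crops and weeds grown in potting soil were sprayed at 8 lbs. compound per acre in 38 gallons per acre, pre-emergence pots seeded one day before treatment. Injury or control was visually rated two weeks after treatment.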

CNC(=O)Nc1nnc(C(F)(F)F)s1 [Example 1, 1-Methyl-3-[5-Trifluoromethyl-2-(1,3,4-Thiadiazolyl)] Urea]
pest or weed control at 4483.4 g/ha ([1]; 4 lb/acre): 90% | pest or weed control at 8966.8 g/ha ([1]; 8 lb/acre): 100% | pest or weed control at 4483.4 g/ha ([2]; 4 lb/acre): 80% | pest or weed control at 8966.8 g/ha ([2]; 8 lb/acre): 70% | pest or weed control at 4483.4 g/ha ([3]; 4 lb/acre): 90% | pest or weed control at 8966.8 g/ha ([3]; 8 lb/acre): 90% | pest or weed control at 4483.4 g/ha ([4]; 4 lb/acre): 80% | pest or weed control at 8966.8 g/ha ([4]; 8 lb/acre): 100% | pest or weed control at 4483.4 g/ha ([5]; 4 lb/acre): 90% | pest or weed control at 8966.8 g/ha ([5]; 8 lb/acre): 90% | pest or weed control ([6]; 2 lb/acre): 60% | pest or weed control at 4483.4 g/ha ([6]; 4 lb/acre): 90% | pest or weed control at 8966.8 g/ha ([6]; 8 lb/acre): 100% | pest or weed control at 2241.7 g/ha ([7]; 2 lb/acre): 70% | pest or weed control at 4483.4 g/ha ([7]; 4 lb/acre): 100% | pest or weed control at 8966.8 g/ha ([7]; 8 lb/acre): 100% | pest or weed control at 2241.7 g/ha ([8]; 2 lb/acre): 100% | pest or weed control at 4483.4 g/ha ([8]; 4 lb/acre): 100% | pest or weed control at 8966.8 g/ha ([8]; 8 lb/acre): 100% | pest or weed control at 2241.7 g/ha ([9]; 2 lb/acre): 80% | pest or weed control at 4483.4 g/ha ([9]; 4 lb/acre): 100% | pest or weed control at 8966.8 g/ha ([9]; 8 lb/acre): 100% | pest or weed control at 2241.7 g/ha ([10]; 2 lb/acre): 100% | pest or weed control at 4483.4 g/ha ([10]; 4 lb/acre): 100% | pest or weed control at 8966.8 g/ha ([10]; 8 lb/acre): 100% | pest or weed control ([11]; 2 lb/acre): 70% | pest or weed control at 4483.4 g/ha ([11]; 4 lb/acre): 100% | pest or weed control at 8966.8 g/ha ([11]; 8 lb/acre): 100% | pest or weed control at 2241.7 g/ha ([12]; 2 lb/acre): 100% | pest or weed control at 4483.4 g/ha ([12]; 4 lb/acre): 100% | pest or weed control at 8966.8 g/ha ([12]; 8 lb/acre): 100% | Pre-emergency activity, % control, Sinapis ([13]; 1 lb/acre): 10 rating score (0–10 scale) | Pre-emergency activity, % control, Sinapis ([13]; 2 lbs/acre): 10 rating score (0–10 scale) | herbicidal effectiveness / selectivity, in words [14]: extremely effective when applied to a variety of crops and weed species
